Experimental data from patent publication US20250059156A1, “THERAPEUTIC ALKALOID COMPOUNDS” (Sensorium Therapeutics, Inc., priority 2022, published 2025).

Key:
SERT = SERT (Homo sapiens (Human), UniProt P31645); assay: SERT inhibition assay (Neurotransmitter Transporter Fluorescence assay); format: cell-based; settings: class symbols; legend in nM/micromolar
Method: SERT inhibition was measured using a Neruotransmitter Transportation Fluorescence assay. Briefly, stable 5HHH cells were prepared in a 384 microwell plate. Compounds were prepared by in assay buffer (20 mM HEPES, 0.1% BSA). The compounds were added to the plated cells and incubated for 30 minutes at 37° C. 25 μL of dye solution (Molecular Devices Neurotransmitter Transporter Uptake Assay Kit) was added per well and incubated for 30 minutes at 37° C. The plates were then read on a plate reader.

PDE4A1A = PDE4A1A (Homo sapiens (Human), UniProt P27815); assay: PDE4 percent inhibition assay; format: biochemical; settings: for inhibition at 10 µM: read-out: PDE4 Isoform % Inhibition @ 10 μM PDE4A1A
PDE4A1A, sequence (P27815 other isoform, or with tags, fused parts or gaps): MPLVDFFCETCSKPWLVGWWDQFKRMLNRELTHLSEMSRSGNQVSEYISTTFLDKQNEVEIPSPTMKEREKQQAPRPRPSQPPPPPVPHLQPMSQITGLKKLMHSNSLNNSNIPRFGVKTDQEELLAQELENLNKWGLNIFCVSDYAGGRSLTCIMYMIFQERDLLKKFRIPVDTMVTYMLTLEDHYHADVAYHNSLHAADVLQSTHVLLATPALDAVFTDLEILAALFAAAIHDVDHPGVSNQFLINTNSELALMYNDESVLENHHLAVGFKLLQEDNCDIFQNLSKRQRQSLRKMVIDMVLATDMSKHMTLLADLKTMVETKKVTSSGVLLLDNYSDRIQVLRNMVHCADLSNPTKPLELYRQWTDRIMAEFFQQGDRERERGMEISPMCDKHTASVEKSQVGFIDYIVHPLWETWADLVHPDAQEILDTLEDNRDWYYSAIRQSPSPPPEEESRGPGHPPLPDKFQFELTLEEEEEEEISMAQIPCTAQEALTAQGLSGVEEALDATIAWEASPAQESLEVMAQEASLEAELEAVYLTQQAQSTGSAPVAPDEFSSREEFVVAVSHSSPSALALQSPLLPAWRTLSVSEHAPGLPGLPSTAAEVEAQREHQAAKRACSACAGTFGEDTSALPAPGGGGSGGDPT
Method: (§1) PDE4 assay kit (BPS Bioscience, San Diego, CA), as described below.
(§2) • 1) Dilute 20 μM FAM-Cyclic-3′, 5′-AMP stock 100-fold with PDE buffer to make a 200 nM solution. Make only sufficient quantity needed for the assay; store remaining 20 μM stock solution in aliquots at −20° C. • 2) Add 25 μl of FAM-Cyclic-3′,5′-AMP (200 nM) to each well designated “Positive Control”, “Test Inhibitor”, and “Substrate Control”. • 3) Add 20 μl of PDE assay buffer to each well designated “Substrate Control” and 45 μl of PDE assay buffer to each well designated “Blank”. • 4) Add 5 μl of inhibitor solution to each well designated “Test Inhibitor”. For the wells labeled “Positive Control”, “Substrate Control” and “Blank”, add 5 μl of the same solution without inhibitor (inhibitor buffer). • 5) Thaw PDE on ice. Upon first thaw, briefly spin tube containing enzyme to recover the full contents of the tube. • 6) Dilute PDE4 in PDE buffer to 7.5 pg/μl (0.15 ng/reaction)*. Initiate reaction by adding 20 μl of PDE4 (7.5 pg/μl) to the wells designated “Positive Control” and “Test Inhibitor.” • 7) Incubate at room temperature for 1 hour.
(§3) • 1) Mix binding agent thoroughly and dilute binding agent 1:100 with binding agent diluent. • 2) Add 100 μl diluted binding agent to each microwell. Incubate at room temperature for 1 hour with slow shaking. • 3) Read the fluorescent polarization of the sample in a microtiter-plate reader equipped for the measurement of fluorescence polarization, capable of excitation at wavelengths ranging from 485±5 nm and detection of emitted light ranging from 528±10 nm. Blank value is subtracted from all other values.
(§4) 100 µM dilutions of the test compounds were prepared in assay buffer (10% DMSO concentration) and 5 μl of the dilution was added to a 50 μl reaction so that the final concentration of DMSO is 1% in all of reactions.
(§5) The enzymatic reactions were conducted at room temperature for 60 minutes in a 50 μl mixture containing PDE assay buffer, 100 nM FAM-cAMP, a PDE enzyme and the test compound.
(§6) After the enzymatic reaction, 100 Is of a binding solution (1:100 dilution of the binding agent with the binding agent diluent) was added to each reaction and the reaction was performed at room temperature for 60 minutes.
(§7) Fluorescence intensity was measured at an excitation of 485 nm and an emission of 528 nm using a Tecan Infinite M1000 microplate reader.

PDE4B2 = PDE4B2 (Homo sapiens (Human), UniProt Q07343); assay: PDE4 percent inhibition assay; format: biochemical; settings: for inhibition at 10 µM: read-out: PDE4 Isoform % Inhibition @ 10 μM PDE4B2
PDE4B2, sequence (Q07343 other isoform, or with tags, fused parts or gaps): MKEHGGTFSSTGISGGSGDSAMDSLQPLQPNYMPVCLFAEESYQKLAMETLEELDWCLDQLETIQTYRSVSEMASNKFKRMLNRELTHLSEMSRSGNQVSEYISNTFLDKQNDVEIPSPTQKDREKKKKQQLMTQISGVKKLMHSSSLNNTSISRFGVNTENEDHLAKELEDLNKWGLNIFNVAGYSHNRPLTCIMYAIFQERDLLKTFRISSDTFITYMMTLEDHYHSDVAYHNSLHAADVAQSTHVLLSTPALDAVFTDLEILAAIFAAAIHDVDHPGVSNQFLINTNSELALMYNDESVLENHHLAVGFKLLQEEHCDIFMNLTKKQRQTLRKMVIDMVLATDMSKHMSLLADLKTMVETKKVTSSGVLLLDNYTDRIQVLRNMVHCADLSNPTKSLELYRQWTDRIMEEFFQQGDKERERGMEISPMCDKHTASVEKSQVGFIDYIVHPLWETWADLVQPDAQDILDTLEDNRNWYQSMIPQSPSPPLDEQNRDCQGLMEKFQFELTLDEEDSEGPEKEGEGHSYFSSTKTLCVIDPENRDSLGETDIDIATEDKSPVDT
Method: as §1, §2, §3, §4, §5, §6, §7

PDE4C1 = PDE4C1 (Homo sapiens (Human), UniProt Q08493); assay: PDE4 percent inhibition assay; format: biochemical; settings: for inhibition at 10 µM: read-out: PDE4 Isoform % Inhibition @ 10 μM PDE4C1
PDE4C1, sequence (Q08493 whole entry, canonical isoform): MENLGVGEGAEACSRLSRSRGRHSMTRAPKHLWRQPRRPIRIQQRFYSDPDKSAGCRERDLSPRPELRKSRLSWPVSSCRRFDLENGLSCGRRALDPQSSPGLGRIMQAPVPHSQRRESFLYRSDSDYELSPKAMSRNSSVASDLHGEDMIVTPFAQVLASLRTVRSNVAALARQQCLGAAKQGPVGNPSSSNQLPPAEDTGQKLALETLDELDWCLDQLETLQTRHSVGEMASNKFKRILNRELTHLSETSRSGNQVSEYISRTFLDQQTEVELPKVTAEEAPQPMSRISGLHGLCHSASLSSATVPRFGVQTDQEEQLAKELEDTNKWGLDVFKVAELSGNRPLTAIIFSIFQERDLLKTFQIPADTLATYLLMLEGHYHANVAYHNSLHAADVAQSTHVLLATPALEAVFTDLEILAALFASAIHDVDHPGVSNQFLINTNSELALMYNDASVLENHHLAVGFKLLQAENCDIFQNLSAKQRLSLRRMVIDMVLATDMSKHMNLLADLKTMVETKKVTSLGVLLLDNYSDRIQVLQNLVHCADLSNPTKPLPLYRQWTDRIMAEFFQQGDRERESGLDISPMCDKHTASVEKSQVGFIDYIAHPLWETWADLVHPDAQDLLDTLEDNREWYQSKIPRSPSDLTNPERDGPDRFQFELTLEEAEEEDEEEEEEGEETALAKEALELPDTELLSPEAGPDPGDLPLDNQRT
Method: as §1, §2, §3, §4, §5, §6, §7

PDE4D2 = PDE4D2 (Homo sapiens (Human), UniProt Q08499); assay: PDE4 percent inhibition assay; format: biochemical; settings: for inhibition at 10 µM: read-out: PDE4 Isoform % Inhibition @ 10 μM PDE4D2
PDE4D2, sequence (Q08499 303-809, change not shown): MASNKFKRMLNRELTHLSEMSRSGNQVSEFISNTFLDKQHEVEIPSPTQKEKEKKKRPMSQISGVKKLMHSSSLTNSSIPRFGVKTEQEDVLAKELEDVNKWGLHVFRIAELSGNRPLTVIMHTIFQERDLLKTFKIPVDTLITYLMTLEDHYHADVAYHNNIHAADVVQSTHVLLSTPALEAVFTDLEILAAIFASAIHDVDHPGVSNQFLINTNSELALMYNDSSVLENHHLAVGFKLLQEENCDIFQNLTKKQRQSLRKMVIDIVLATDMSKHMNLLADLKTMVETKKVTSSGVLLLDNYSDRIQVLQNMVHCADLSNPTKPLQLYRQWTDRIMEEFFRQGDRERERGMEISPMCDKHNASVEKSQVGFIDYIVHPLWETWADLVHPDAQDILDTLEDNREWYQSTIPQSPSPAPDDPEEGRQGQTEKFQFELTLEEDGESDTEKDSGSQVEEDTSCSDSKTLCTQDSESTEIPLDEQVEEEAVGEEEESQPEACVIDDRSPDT
Method: as §1, §2, §3, §4, §5, §6, §7

SERT, sequence (P31645 whole entry, species assumed): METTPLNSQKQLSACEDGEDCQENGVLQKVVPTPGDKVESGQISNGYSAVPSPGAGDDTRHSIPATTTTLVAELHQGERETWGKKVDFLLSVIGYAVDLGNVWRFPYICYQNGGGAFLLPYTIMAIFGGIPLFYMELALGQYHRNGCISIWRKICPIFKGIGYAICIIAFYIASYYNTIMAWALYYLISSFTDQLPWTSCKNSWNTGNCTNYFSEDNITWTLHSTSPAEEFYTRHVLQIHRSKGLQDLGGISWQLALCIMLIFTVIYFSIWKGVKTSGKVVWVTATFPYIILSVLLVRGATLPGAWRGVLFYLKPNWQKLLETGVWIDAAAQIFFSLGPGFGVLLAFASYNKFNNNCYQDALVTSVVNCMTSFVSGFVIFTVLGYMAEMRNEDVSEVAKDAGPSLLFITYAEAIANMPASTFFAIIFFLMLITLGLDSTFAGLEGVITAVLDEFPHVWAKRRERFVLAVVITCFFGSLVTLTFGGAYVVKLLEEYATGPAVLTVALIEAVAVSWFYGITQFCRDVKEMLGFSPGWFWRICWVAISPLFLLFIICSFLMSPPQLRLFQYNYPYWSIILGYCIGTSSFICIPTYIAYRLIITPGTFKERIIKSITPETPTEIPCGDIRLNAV

## COc1ccc([C@]23CCN(C)[C@H]2CC2(CCCO2)CC3)cc1OC (stereo partly shown) [Compound 117, (3a'S,7a'S)-3a′-(3,4-dimethoxyphenyl)-1′-methyldecahydro-3H-spiro[furan-2,6′-indole]]
SERT
  IC50: < 50 nM
PDE4A1A
  inhibition at 10 µM: 30 to 50%
PDE4B2
  inhibition at 10 µM: 30 to 50%
PDE4C1
  inhibition at 10 µM: < 30%
PDE4D2
  inhibition at 10 µM: 30 to 50%

## COc1ccc([C@]23CCN(C)[C@H]2CC2(CCO2)CC3)cc1OC (stereo partly drawn) [Compound 118, (3aS,7aS)-3a-(3,4-dimethoxyphenyl)-1-methyloctahydrospiro[indole-6,2′-oxetane]]
SERT
  IC50: < 50 nM
PDE4A1A
  inhibition at 10 µM: 30 to 50%
PDE4B2
  inhibition at 10 µM: < 30%
PDE4C1
  inhibition at 10 µM: 30 to 50%
PDE4D2
  inhibition at 10 µM: 30 to 50%

## COc1ccc([C@]23CC[C@@H](n4ccc(C(F)(F)F)n4)C[C@H]2N(C)CC3)cc1OC [Compound 121]
SERT
  IC50: 100 to 500 nM
PDE4A1A
  PDE4 Isoform % Inhibition @ 10 μM PDE4A1A: D (D if the percent inhibition is less than 30%)
PDE4B2
  PDE4 Isoform % Inhibition @ 10 μM PDE4B2: B (B if the percent inhibition is 50-70%)
PDE4C1
  PDE4 Isoform % Inhibition @ 10 μM PDE4C1: D (D if the percent inhibition is less than 30%)
PDE4D2
  PDE4 Isoform % Inhibition @ 10 μM PDE4D2: B (B if the percent inhibition is 50-70%)

## COc1ccc([C@]23CC[C@H](n4ccc(C(F)(F)F)n4)C[C@H]2N(C)CC3)cc1OC [Compound 122]
SERT
  IC50: > 1000 nM
PDE4A1A
  PDE4 Isoform % Inhibition @ 10 μM PDE4A1A: D (D if the percent inhibition is less than 30%)
PDE4B2
  PDE4 Isoform % Inhibition @ 10 μM PDE4B2: D (D if the percent inhibition is less than 30%)
PDE4C1
  PDE4 Isoform % Inhibition @ 10 μM PDE4C1: D (D if the percent inhibition is less than 30%)
PDE4D2
  PDE4 Isoform % Inhibition @ 10 μM PDE4D2: D (D if the percent inhibition is less than 30%)

## COc1ccc([C@]23CCN(C)[C@H]2[C@H]2CC[C@@H]3CC2=O)cc1OC [Compound 203]
SERT
  IC50: 50 to 100 nM
PDE4A1A
  PDE4 Isoform % Inhibition @ 10 μM PDE4A1A: D (D if the percent inhibition is less than 30%)
PDE4B2
  PDE4 Isoform % Inhibition @ 10 μM PDE4B2: B (B if the percent inhibition is 50-70%)
PDE4C1
  PDE4 Isoform % Inhibition @ 10 μM PDE4C1: C (C is the percent inhibition is 30-50%)
PDE4D2
  PDE4 Isoform % Inhibition @ 10 μM PDE4D2: B (B if the percent inhibition is 50-70%)

## COc1ccc([C@]23CCN(C)[C@H]2[C@@H]2CC[C@H]3CC2=O)cc1OC [Compound 204]
SERT
  IC50: 100 to 500 nM
PDE4A1A
  PDE4 Isoform % Inhibition @ 10 μM PDE4A1A: A (A if the % inhibition is greater than or equal to 70%)
PDE4B2
  PDE4 Isoform % Inhibition @ 10 μM PDE4B2: A (A if the % inhibition is greater than or equal to 70%)
PDE4C1
  PDE4 Isoform % Inhibition @ 10 μM PDE4C1: A (A if the % inhibition is greater than or equal to 70%)
PDE4D2
  PDE4 Isoform % Inhibition @ 10 μM PDE4D2: A (A if the % inhibition is greater than or equal to 70%)

## COc1ccc([C@@]23CCN(C)[C@@H]2CC(=O)C[C@@H]3c2ccccc2)cc1OC [Compound 206]
SERT
  IC50: > 1000 nM
PDE4A1A
  PDE4 Isoform % Inhibition @ 10 μM PDE4A1A: A (A if the % inhibition is greater than or equal to 70%)
PDE4B2
  PDE4 Isoform % Inhibition @ 10 μM PDE4B2: A (A if the % inhibition is greater than or equal to 70%)
PDE4C1
  PDE4 Isoform % Inhibition @ 10 μM PDE4C1: B (B if the percent inhibition is 50-70%)
PDE4D2
  PDE4 Isoform % Inhibition @ 10 μM PDE4D2: A (A if the % inhibition is greater than or equal to 70%)

## COc1ccc([C@]23CCN(C)[C@H]2CC(=O)C[C@H]3c2ccccc2)cc1OC [Compound 207]
SERT
  IC50: > 1000 nM
PDE4A1A
  PDE4 Isoform % Inhibition @ 10 μM PDE4A1A: B (B if the percent inhibition is 50-70%)
PDE4B2
  PDE4 Isoform % Inhibition @ 10 μM PDE4B2: B (B if the percent inhibition is 50-70%)
PDE4C1
  PDE4 Isoform % Inhibition @ 10 μM PDE4C1: B (B if the percent inhibition is 50-70%)
PDE4D2
  PDE4 Isoform % Inhibition @ 10 μM PDE4D2: B (B if the percent inhibition is 50-70%)
